Measured values as given in ChEMBL document CHEMBL5465560, “Selectivity Literature for EUbOPEN Chemogenomic Library” (2024).

Legend:
[1] = target: T1, Serine/threonine-protein kinase haspin (Homo sapiens) (UniProt Q8TF76); test: Selectivity interaction (KinomeScan (DiscoverX)) EUB0001079a GSG2; conditions: at 1 µM
T1 sequence (whole entry): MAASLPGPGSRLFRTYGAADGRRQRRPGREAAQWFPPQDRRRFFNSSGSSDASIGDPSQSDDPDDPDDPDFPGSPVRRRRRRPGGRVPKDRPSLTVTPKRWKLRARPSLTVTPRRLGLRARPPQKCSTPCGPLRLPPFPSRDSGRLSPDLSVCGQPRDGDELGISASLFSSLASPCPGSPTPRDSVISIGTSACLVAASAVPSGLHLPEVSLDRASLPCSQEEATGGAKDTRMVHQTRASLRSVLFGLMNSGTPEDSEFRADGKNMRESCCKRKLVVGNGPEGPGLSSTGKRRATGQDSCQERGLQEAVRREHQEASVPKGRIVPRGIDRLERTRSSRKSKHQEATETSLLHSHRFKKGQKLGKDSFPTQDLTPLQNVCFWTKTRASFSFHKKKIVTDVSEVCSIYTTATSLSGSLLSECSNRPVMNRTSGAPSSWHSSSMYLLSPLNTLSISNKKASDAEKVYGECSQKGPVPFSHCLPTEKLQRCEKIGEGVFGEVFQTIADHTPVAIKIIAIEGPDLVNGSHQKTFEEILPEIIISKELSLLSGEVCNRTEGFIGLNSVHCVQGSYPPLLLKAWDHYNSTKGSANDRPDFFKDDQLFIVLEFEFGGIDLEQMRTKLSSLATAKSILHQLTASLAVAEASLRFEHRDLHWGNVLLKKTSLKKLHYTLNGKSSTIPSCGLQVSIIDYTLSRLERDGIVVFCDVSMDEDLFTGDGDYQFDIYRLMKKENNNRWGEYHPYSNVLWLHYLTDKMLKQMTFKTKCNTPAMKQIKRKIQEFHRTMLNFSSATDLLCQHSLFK

[2] = target: T2, Serine/threonine-protein kinase Nek2 (Homo sapiens) (UniProt P51955); test: Selectivity interaction (KinomeScan (DiscoverX)) EUB0000045b NEK2
T2 sequence (whole entry): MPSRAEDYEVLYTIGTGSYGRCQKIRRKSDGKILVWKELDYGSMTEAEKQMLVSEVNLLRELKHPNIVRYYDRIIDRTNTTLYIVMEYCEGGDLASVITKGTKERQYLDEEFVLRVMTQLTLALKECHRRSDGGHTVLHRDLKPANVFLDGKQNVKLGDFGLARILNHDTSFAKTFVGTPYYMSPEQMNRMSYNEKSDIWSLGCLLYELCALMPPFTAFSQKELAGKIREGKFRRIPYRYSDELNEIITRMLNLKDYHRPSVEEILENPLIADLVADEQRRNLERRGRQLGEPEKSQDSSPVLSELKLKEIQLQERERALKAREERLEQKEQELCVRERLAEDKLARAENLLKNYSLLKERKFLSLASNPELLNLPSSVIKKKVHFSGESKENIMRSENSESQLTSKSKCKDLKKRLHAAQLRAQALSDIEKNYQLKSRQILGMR

[3] = target: T3, Tyrosine-protein kinase JAK3 (Homo sapiens) (UniProt P52333); test: Selectivity interaction (SelectScreen profiling (Invitrogen)) EUB0000607a JAK3; conditions: at 2 µM
T3 sequence (whole entry): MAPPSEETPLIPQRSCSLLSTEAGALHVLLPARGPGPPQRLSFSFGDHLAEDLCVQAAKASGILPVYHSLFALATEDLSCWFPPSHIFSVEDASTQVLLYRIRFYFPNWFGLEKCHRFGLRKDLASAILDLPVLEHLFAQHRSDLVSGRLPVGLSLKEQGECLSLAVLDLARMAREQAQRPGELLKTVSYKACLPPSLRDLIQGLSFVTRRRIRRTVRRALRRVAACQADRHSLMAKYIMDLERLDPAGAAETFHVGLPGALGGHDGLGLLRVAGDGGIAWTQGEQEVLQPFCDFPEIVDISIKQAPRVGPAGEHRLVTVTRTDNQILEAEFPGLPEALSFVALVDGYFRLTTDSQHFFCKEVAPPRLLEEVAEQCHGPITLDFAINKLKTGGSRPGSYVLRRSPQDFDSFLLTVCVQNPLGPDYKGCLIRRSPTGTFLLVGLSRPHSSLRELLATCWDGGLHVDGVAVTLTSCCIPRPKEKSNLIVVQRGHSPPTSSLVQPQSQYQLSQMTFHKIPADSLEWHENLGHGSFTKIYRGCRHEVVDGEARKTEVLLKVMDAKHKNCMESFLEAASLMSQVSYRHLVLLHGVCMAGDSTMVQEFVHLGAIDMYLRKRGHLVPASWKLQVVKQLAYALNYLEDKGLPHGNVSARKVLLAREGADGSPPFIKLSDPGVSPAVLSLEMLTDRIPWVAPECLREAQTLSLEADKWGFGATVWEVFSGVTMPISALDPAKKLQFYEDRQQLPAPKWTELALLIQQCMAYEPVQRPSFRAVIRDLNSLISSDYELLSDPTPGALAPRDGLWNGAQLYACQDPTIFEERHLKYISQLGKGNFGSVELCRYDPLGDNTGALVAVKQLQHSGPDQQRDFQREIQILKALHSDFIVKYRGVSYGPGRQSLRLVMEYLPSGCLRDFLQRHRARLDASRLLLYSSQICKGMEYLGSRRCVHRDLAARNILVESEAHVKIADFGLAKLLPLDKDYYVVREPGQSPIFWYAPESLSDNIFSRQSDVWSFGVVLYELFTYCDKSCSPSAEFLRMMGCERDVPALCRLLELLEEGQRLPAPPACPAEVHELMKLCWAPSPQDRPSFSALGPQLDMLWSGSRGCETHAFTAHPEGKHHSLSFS

[4] = target: Ribosomal protein S6 kinase alpha-1 (Homo sapiens, UniProt Q15418); test: Selectivity interaction (KinomeScan (DiscoverX)) EUB0000607a RPS6KA1; conditions: at 10 µM
Sequence of Ribosomal protein S6 kinase alpha-1 (Q15418 whole entry): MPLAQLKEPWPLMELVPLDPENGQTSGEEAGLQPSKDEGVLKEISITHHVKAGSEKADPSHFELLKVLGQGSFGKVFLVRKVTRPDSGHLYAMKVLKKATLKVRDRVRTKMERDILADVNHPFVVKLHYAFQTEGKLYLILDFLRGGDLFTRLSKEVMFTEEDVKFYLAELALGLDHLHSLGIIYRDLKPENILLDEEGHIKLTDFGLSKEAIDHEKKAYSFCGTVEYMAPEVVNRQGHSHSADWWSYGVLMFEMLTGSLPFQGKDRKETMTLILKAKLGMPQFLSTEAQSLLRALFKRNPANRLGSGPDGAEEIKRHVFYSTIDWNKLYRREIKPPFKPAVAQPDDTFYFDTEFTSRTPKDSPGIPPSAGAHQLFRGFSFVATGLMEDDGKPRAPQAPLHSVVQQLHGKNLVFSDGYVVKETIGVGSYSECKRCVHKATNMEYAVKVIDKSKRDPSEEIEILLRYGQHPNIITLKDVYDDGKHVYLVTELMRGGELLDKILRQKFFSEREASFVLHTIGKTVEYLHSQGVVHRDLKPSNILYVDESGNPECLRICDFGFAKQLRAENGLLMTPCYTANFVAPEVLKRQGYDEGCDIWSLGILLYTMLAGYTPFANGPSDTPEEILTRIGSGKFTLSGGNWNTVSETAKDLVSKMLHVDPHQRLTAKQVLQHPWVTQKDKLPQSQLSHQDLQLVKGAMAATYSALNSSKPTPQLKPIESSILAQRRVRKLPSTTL

Structure (SMILES): Nc1cnc(N2CCc3cc(S(=O)(=O)Nc4c(F)cc(Cl)cc4F)cc(N4CCCC4=O)c32)nc1 [TP-020n]
- % of control [1]: 100%

Structure (SMILES): C=CC(=O)Nc1cc(-n2c(=O)ccc3cnc4ccc(-c5ccc(NS(C)(=O)=O)cc5)cc4c32)ccc1C
- % of control ([2]; at 1 µM): 79%
- % of control ([2]; at 10 µM): 85%

Structure (SMILES): CNC(=O)Nc1ccc(-c2nc(N3CC4CCC(C3)O4)c3cnn(C4CCC5(CC4)OCCO5)c3n2)cc1
- % of inhibition [3]: 0%
- % of control [4]: 91%
